How the values were obtained:
canine = assay: Effect of berberine after intravenous propanolol, 12 canine experiments; assay type: in vivo; details: intravenous propanolol (1 mg/kg)
Description: The mechanism of berberine is dissimilar to that of beta-adrenergic agonists, which while increasing contractility, increase heart rate also. […] Berberine differs also from digitalis because it reduces peripheral resistance in the non-failing heart.

[1] = test system: healthy adult mongrel dogs; assay: Protocol M: hemodynamics in anesthetized open-chest dogs, systolic arterial pressure held constant; assay type: in vivo
Description: The experimental work was carried out as follows: Twelve healthy adult mongrel dogs (20-30 kg) of both sexes were anesthetized with intravenous sodium pentobarbital (25 mg/kg). A left thoractomy was performed through the fifth intercostal space. Catheters were placed to record left atrial, left ventricular and aortic pressures. Descending aortic blood flow was measured with an electromagnetic flowmeter. Heart rate (HR) was calculated using electocardiographic recording, lead aVF. All parameters were recorded on a Gould polygraph. The dogs were randomly assigned either to the control or to the treated group. Six of the dogs were in the control group and these dogs were infused with a placebo, namely the vehicle used for the drug tested. […] Berberine (as the hydrochloride salt) was administered to six anesthesized dogs (barbiturate). The dose was 0.7 mg/kg/min. intravenously infused durng 5 minutes. This dose was repeated after 45 minutes. Systolic arterial pressure was maintained at a constant rate using a reservoir full of blood under constant pressure connected to the femoral artery. Whenever the arterial pressure was not maintained constant in the work reported (and allowed to drop) appropriate reference is made herein to that fact. Systemic arterial pressure was maintained at a constant rate in order to obtain accurate dP/dt since this parameter is of extreme importance in these studies. However, as a consequence, the vascular peripheral resistence, when described as a function of mean aortic pressure, was higher than if the pressure would be allowed to fall with the administration of the compound. Therefore, the reduction calculated total peripheral resistence is underestimated. Also dP/dt is less increased when bradycardia (lower heart rate) occurs and since heart rate was allowed to fall (which is the effect of the drug), the increase in dP/dt reported here is actually underestimated as compared to preparations in which heart rate would have been maintained constant. In Tables I to IX the results of these experiments are presented. The first two lines presents the studied parameter in absolute values, the third line representing the "t" values used in Student's t test for group observation, between the treated and control groups. The fourth line presents the level of significance. The next four lines give the values as changes (Δ) from the value before treatment to the value after treatment. The third set of values represent the changes in percent. The last two sets of two lines represent the paired t-test values and the derived p values obtained by analyzing the data from before the infusion of the drug (last set of two lines) or the placebo (next to last set of two lines), in the subsequent time interval (i.e. after infusion). Therefore, each dog serves as his own control, thus increasing the statistical value of the tests. […] Thus, the calculated peripheral resistance increased by 18% (P <0.02).

dogs [2] = assay: Protocol RK, single dose: dose response on systemic arterial pressure and heart rate; assay type: in vivo; details: for average fall in mean arterial pressure: 90 minutes after injection
Description: In 4 groups of dogs instrumented as in the last series of experiments (Protocol RK) the effects of increasing dose response on systemic arterial pressure was examined. The only difference from that protocol was that only one dose of berberine (as opposed to two) was administered.
The effects on the measured parameters is dose responsive. In four groups of dogs, the changes in blood pressure were analyzed. The dosage administered was7.5,15,30 and 70 mg/Kg. It was observed that generally blood pressure drop was most marked in the first 5 minutes. After 90 minutes following the injection (when the experiment wad discontinued), the average fall in mean arterial pressure in the group which received 15 mg/Kg was 19 mmHg; in the group that received 30 mg/Kg it was 37 mmHg and in the group that received 70 mg/Kg it was 63 mmHg.

dog = assay: Protocol M simile: high or repetitive infusions in single dogs; assay type: in vivo
Description: It is noted that the dP/dt increased by 350% after the eighth dose and dF/dt by 450%.
In one dog using protocol M simile, 240 mg/Kg of berberine HCI was administered and dP/dt increased by 75%, aortic flow by 67%, heart rate fell from 150 to 114 beats/min., diastolic aortic pressure fell from 92 to 67 mmHg, and left atrial pressure fell from 8.5 to 7.5 mmHg.
When this type of experiment was repeated with tetrahydropalmatine, a first dose of 3.5 mg/Kg was given without maintaining the pressure constant and arterial pressure fell from 142/115 to 118/90 mmHg. When the second infusion was given with constant pressure, dP/dt increased by 17%.

dogs [3] = assay: Three week toxicology study in 12 dogs; assay type: in vivo; details: 0.2 mg/kg/min for 60 minutes twice daily for 3 weeks
dogs [4] = assay: Supraventricular arrhythmias by topical application of aconitine to the atria; assay type: in vivo; details: intraveneous bolus 1-5 mg/Kg; aconitine (0.04%) solution
[5] = Microneucleus test with Ames test on urine for mutagenic potential
dogs [6] = assay: Arrhythmias produced by intravenous infusion of aconitine; assay type: in vivo
Description: To examine the effects of berberine on arrhythmias produced by intravenous infusion of aconitine in fifteen dogs after development of VEA, of at least 50% of the beats or more, the dogs were given berberine intravenously as a bolus (1-5 mg/Kg) or 5% dextrose in water.

[7] = test system: patient with cardiomyopathy; assay: Berberine in one patient with cardiomyopathy in irreversible cardiogenic shock; assay type: in vivo
Description: In the last two hours before berberine it was not measurable. […] Stroke volume was 20 ml and then 36 and then 36 ml.

[8] = test system: chronically instrumented conscious dogs; assay: Oral administration in chronically instrumented conscious dogs; assay type: in vivo
[9] = one dog, after the eighth dose, 0.7 mg/kg/min repeated up to 56 mg/Kg

SMILES: COc1ccc2cc3[n+](cc2c1OC)CCc1cc2c(cc1-3)OCO2 [berberine]
- effect on contractility, arterial pressure or heart rate after beta blockade (canine): did not change the effect of berberine
- diastolic aortic pressure (DAP) ([1]; after treatment, from 84 before): 62 mmHg
- increase in peak blood flow velocity ([1]; descending aorta): ~50%
- arrhythmias during the experimental period ([1]; dog, in vivo): did not develop any type of arrhythmias
- drop of DAP ([1]; dog, in vivo): 20 mmHg
- reduction in HR ([1]; dog, in vivo): 9 beats/min
- difference in dP/dt between the control group and the berberine-treated group ([1]; end of experiment): 50%
- dP/dt maximum of the left ventrical ([1]; end of experiment, 0.7 mg/kg/min i.v. 5 min, repeated after 45 min, control 2009 ± 132): 2974 ± 121 mmHg/s
- increase in the acceleration of blood flow (dF/dt) ([1]; first vs last column of Table III): ~65%
- mean left artrial pressure (LAP) ([1]; initial 1 or 2 mmHg): no change
- left ventricular end diastolic pressure (LVEDP) ([1]; normal, averaging 3 mmHg): no change
- increase of dF/dt ([1]; summary statement): at least 50%
- increase of dP/dt ([1]; summary statement): at least 50%
- decrease of heart rate (dogs [2]; 7.5 mg/Kg): 20 beats/min
- decrease of heart rate (dogs [2]; 15 mg/Kg): 16 beats/min
- average fall in mean arterial pressure (dogs [2]; 15 mg/Kg): 19 mmHg
- average fall in mean arterial pressure (dogs [2]; 30 mg/Kg): 37 mmHg
- decrease of heart rate (dogs [2]; 35 mg/Kg): 40 beats/min
- decrease of heart rate (dogs [2]; 70 mg/Kg): 103 beats/min
- average fall in mean arterial pressure (dogs [2]; 70 mg/Kg): 63 mmHg
- primary arrhythmias (dogs [2]; 7.5 to 70 mg/Kg): No primary arrhythmias were obtained
- arrhythmias (dog; one dog, 240 mg/Kg): No arrhythmias were noted
- increase of aortic flow (dog; one dog, 240 mg/Kg): 67%
- increase of dP/dt (dog; one dog, 240 mg/Kg): 75%
- left atrial pressure (dog; one dog, 240 mg/Kg, from 8.5): 7.5 mmHg
- diastolic aortic pressure (dog; one dog, 240 mg/Kg, from 92): 67 mmHg
- heart rate (dog; one dog, 240 mg/Kg, from 150): 114 beats/min
- increase of dF/dt (dog; [9]): 450%
- increase of dP/dt (dog; [9]): 350%
- arrhythmias (dog; one dog, up to 56 mg/Kg): No arrhythmias were observed
- side effects (electrolytes, heptatic function, renal function, proteins, coagulation, blood cells, platelet count) (dogs [3]): no side effects were observed
- tissues at post-mortem (dogs [3]): normal histologically
- atrial ectopic beats, atrial tachycardia or atrial fibrillation (dogs [4]): effective in abolishing these arrhythmias
- mutagenic potential [5]: negative
- dogs with regression of the arrhythmias to normal sinus or supraventricular rhythm (dogs [6]; intravenous bolus 1-5 mg/Kg after VEA of at least 50% of the beats, controls 20%): 78%
- ventricular fibrillation (dogs [6]; two cases): ventricular fibrillation reverted to normal sinus rhythm
- cardiac output ([7]; 0.2 and 0.4 mg/kg/min, after 30 minutes, from 1.2): 3.5 L/min
- increase of cardiac output ([7]; after 30 minutes): 192%
- cardiac output ([7]; after 90 minutes): 2.2 L/min
- increase of cardiac output ([7]; after 90 minutes): 82%
- Stroke volume ([7]; first value after berberine, from 20 ml): 36 mL
- Stroke volume ([7]; second value after berberine): 36 mL

SMILES: COc1ccc2cc3[n+](cc2c1O)CCc1cc2c(cc1-3)OCO2 [berberrubine]
- result of the corresponding Protocol M experiments (dP/dt, peak blood flow, acceleration of flow, heart rate, diastolic pressure) ([1]; dog, in vivo): like results are obtained

SMILES: COc1cc2c(cc1O)C[C@H]1c3cc(O)c(OC)cc3CCN1C2 [coreximine]
- result of the corresponding Protocol M experiments (dP/dt, peak blood flow, acceleration of flow, heart rate, diastolic pressure) ([1]; dog, in vivo): like results are obtained
- result when the experiments are repeated (dog; dog, in vivo): comparable results are obtained
- oral effects compared with berberine ([8]; dog, in vivo, po): more marked than those of berberine
- increase of LV dP/dt ([8]; oral 5 mg/kg twice daily, after the first day): 25%
